Read-outs that look alike come from different tables or passages of the source.
Columns and labels:
[1] = tested on: MDA-MB 231 (human breast adenocarcinoma); assay: MTS cytotoxicity assay, MDA-MB 231 cells; type: cell-based
Procedure: (§1) For the evaluation of the cytotoxic effects of the complexes and ligand two human cancer cell lines were used, namely MDA-MB 231 (human breast adenocarcinoma) and LoVo (human colon adenocarcinoma); a normal cell line, human umbilical vein endothelial cells (HUVEC), was used as a reference. […] After 24 h and 48 h, respectively, cell viability was evaluated through MTS assay (data shown in Figures S16–S18) and the IC50 values were calculated (Table 5). The cytotoxicity assay is based on the ability of metabolically active cells to reduce MTS, a yellow tetrazolium salt, to the colored formazan, soluble in the culture medium; the concentration of formazan can be spectrophotometrically determined. […] PES is a cationic dye with high chemical stability that binds to MTS and forms a stable solution. […] The reduced MTS to formazan was spectrophotometrically measured at λ = 492 nm. The test was run on two cancer cell lines, LoVo and MDA-MB 231, and on a normal cell line, HUVEC. […] Cell viability data were obtained in triplicate (n = 3) and expressed as mean values ± standard deviations (SD). […] All assays were performed in 96-well microtiter plates with flat bottom (Falcon), using CellTiter 96 Aqueous One Solution Cell Proliferation Assay (Promega), an MTS-based colorimetric assay. The formazan was spectrophotometrically measured using the Tecan GENios Spectrophotometer.

[2] = tested on: HUVEC (normal human umbilical vein endothelial cells); assay: MTS cytotoxicity assay, HUVEC normal cells; type: cell-based; settings: 48 h of incubation
Procedure: as §1

[3] = tested on: LoVo (human colon adenocarcinoma); assay: MTS cytotoxicity assay, LoVo cells; type: cell-based; settings: 48 h of incubation
Procedure: as §1

Apo-transferrin (apo-Tf) = molecular target: T1, Apo-transferrin (apo-Tf) (Homo sapiens, UniProt P02787); assay: Fluorescence quenching of apo-transferrin; type: binding; settings: for Ka (association binding constant), apo-Tf / n (Hill Coefficient), apo-Tf / n (Number of Binding Sites), apo-Tf / Ksv (Stern-Volmer constant), apo-Tf / Kq (bimolecular quenching constant), apo-Tf / fa (fraction of fluorophore accessible to the quencher), apo-Tf / Kd: 298 K; for Ksv (Stern-Volmer constant), apo-Tf: 0–8 µM compound, pH 7.4; for Kq (bimolecular quenching constant), apo-Tf: from KSV = Kq τ0; for fa (fraction of fluorophore accessible to the quencher), apo-Tf: modified Stern-Volmer
T1 construct: purchased Sigma Aldrich Chemical Co. (Schnelldorf, Germany)

[4] = molecular target: T2, Human serum albumin (HSA) (Homo sapiens, UniProt P02768); assay: Fluorescence quenching of human serum albumin; settings: for Ka (association binding constant), HSA / n (Hill Coefficient), HSA / n (Number of Binding Sites), HSA / Ksv (Stern-Volmer constant), HSA / Kq (bimolecular quenching constant), HSA / fa (fraction of fluorophore accessible to the quencher), HSA / Kd: 298 K; for Ksv (Stern-Volmer constant), HSA: 0–8 µM compound, pH 7.4; for Kq (bimolecular quenching constant), HSA: from KSV = Kq τ0; for fa (fraction of fluorophore accessible to the quencher), HSA: modified Stern-Volmer; for Kd: HSA
EB-DNA system (CT-DNA) = assay: Competitive binding assay with ethidium bromide (EB) through fluorescence spectroscopy; parameters: species or system calf; settings: 10 µM CT-DNA, 2 µM EB; for Ksv (Stern-Volmer quenching constant, EB-DNA system): 0–40 µM compound, λex 500 nm; for K50 (EB Displacement Assay): concentration corresponding to 50% binding
Source text: The manner of binding to the DNA macromolecule can be investigated through competitive binding studies with ethidium bromide (3,8-diamino-5-ethyl-6-phenylphenanthridinium bromide), a fluorescent dye; due to its aromatic ring, it can intercalate between two adjacent base pairs in the DNA structure and form a complex which emits fluorescent light; displacing EB results in a quenching effect. The Stern-Volmer constant (KSV) and the dissociation constant (K50) have been calculated from the resulting data.
Competitive binding studies were carried out on a Jasco FP 6500 fluorometer at room temperature, using quartz cells of 1 cm path-length. The fluorescence spectra were recorded on 1.6 mL samples containing 10 µM CT-DNA and 2 µM EB in the absence and presence of increasing amounts (0–40 µM with an increment of 5 µM) of complexes and free ligands, respectively, after being kept in contact for 10 min at room temperature, under continuous stirring and in the dark. The excitation wavelength used was 500 nm and the spectra was recorded in the 520–800 nm range. Two control samples were used, the first one containing DMSO, DNA and EB and the second one just the complex.
Data from the assay can be interpreted using the classical Stern-Volmer equation (Equation (3)):(3) F0/F=1+ KSV·[Q] where F0 and F are the fluorescence intensities of the EB-DNA samples in the absence and presence of the tested compounds and [Q] is the concentration of the compound; KSV is the Stern-Volmer constant and can be calculated from the plot of F0/F vs. [Q] as the slope.
The ratio of binding relative to the control sample exposed only to DMSO was plotted against the logarithm of concentration. The data points were fitted using the modified Hill function with offset (Origin®) (Equation (4)):(4) y=A1+(A2−A1)×x^n/K50^n+x^n where y is the ratio of binding (F/F0) and x is the concentration, A1 is the minimum of y values, A2 is the maximum of y values, K50 is the concentration corresponding to 50% binding and n is the Hill coefficient.

[5] = molecular target: T2, Human serum albumin (HSA)
[6] = Homo sapiens, MDA-MB-231, 48 h of incubation

T2 sequence (P02768 25-609): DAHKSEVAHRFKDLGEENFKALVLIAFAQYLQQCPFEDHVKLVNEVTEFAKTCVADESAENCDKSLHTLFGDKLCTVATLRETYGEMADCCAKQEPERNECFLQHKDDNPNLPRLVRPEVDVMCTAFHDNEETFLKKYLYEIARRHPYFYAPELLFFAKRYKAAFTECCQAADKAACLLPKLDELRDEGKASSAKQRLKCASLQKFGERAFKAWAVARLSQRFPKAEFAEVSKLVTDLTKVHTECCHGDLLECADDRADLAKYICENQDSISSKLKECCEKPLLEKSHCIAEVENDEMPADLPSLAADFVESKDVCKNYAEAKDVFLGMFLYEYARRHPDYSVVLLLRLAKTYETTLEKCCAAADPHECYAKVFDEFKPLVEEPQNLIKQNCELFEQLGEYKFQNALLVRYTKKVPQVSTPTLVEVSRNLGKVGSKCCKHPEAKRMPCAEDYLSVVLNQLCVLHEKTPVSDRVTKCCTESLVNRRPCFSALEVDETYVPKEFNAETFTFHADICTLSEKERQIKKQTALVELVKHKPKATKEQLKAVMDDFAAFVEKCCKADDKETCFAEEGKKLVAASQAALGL
T1 sequence (P02787 20-698): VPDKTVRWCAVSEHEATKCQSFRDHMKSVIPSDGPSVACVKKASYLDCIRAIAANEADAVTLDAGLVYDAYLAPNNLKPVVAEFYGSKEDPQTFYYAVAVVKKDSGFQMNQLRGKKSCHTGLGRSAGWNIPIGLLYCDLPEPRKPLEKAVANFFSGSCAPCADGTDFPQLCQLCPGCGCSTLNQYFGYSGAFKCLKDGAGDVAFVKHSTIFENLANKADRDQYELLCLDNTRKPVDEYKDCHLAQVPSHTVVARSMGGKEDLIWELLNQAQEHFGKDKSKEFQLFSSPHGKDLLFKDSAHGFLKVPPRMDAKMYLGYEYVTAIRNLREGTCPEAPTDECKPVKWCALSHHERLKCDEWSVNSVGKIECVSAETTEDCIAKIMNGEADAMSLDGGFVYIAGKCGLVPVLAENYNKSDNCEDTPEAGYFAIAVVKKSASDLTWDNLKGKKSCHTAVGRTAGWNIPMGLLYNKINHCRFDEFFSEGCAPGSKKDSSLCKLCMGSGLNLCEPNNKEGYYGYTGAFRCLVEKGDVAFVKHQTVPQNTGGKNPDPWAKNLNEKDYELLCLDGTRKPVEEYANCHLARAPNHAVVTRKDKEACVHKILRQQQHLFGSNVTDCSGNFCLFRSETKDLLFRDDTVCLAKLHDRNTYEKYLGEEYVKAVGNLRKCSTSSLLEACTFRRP

| Compound | IC50 [1, 6] [µM] | IC50 [2] [µM] | IC50 [3] [µM] | Ka (association binding constant), apo-Tf (Apo-transferrin (apo-Tf)) | n (Hill Coefficient), apo-Tf (Apo-transferrin (apo-Tf)) | n (Number of Binding Sites), apo-Tf (Apo-transferrin (apo-Tf)) | Ksv (Stern-Volmer constant), apo-Tf (Apo-transferrin (apo-Tf); 1 µM apo-Tf) | Kq (bimolecular quenching constant), apo-Tf (Apo-transferrin (apo-Tf)) [M⁻¹ s⁻¹] | fa (fraction of fluorophore accessible to the quencher), apo-Tf (Apo-transferrin (apo-Tf)) | Kd (Apo-transferrin (apo-Tf); read-out: Kd, apo-Tf) [µM] | IC50 ([1]; 48 h of incubation) [µM] | Ka (association binding constant), HSA [4] | n (Hill Coefficient), HSA [4] | n (Number of Binding Sites), HSA [4] | Ksv (Stern-Volmer constant), HSA ([4]; 2.5 µM HSA) | Kq (bimolecular quenching constant), HSA [4] [M⁻¹ s⁻¹] | fa (fraction of fluorophore accessible to the quencher), HSA [4] | Ksv (Stern-Volmer quenching constant, EB-DNA system) (EB-DNA system (CT-DNA)) | K50 (EB Displacement Assay) (EB-DNA system (CT-DNA)) [µM] | Kd [5] [µM] | further results |
| --- | --- | --- | --- | --- | --- | --- | --- | --- | --- | --- | --- | --- | --- | --- | --- | --- | --- | --- | --- | --- | --- |
| COc1cccc2c1C(=O)c1c(O)c3c(c(O)c1C2=O)C[C@@](O)(C(=O)CO)C[C@@H]3O[C@H]1C[C@H](N)[C@H](O)[C@H](C)O1 [ADR, adriamycin, reference compound] | 7.85 ± 0.7 |  |  |  |  |  |  |  |  |  |  |  |  |  |  |  |  |  |  |  |  |
| N.N.[Cl][Pt][Cl] [Cis-Pt, Cisplatin, reference compound] |  | 28.5 ± 6.28 | 40.1 ± 13.9 |  |  |  |  |  |  |  |  |  |  |  |  |  |  |  |  |  |  |
| CCn1cc(C(=O)[O][Y]([OH])[O]C(=O)c2cn(CC)c3cc4c(cc3c2=O)OCO4)c(=O)c2cc3c(cc21)OCO3.O [Y oxo, [Y(oxo)(OH)(H2O)]] |  | > 200 | 90.4 ± 9.3 | 4.40(±1.09) × 10^4 M^−1 | 1.58 ± 0.23 | 0.94 ± 0.01 | 6.52 (± 0.56) × 10^4 M^−1 | 6.52e+12 | 1.15 ± 0.07 | 8.34 ± 1.71 | 33.2 ± 14.9 | (2.04 ± 0.74) × 10^5 M^−1 | 1.52 ± 0.47 | 1.44 ± 0.03 | (10.53 ± 0.95) × 10^4 M^−1 | 1.053e+13 | 1.07 ± 0.05 | 8.38 (±0.29) × 10^3 | 28.07 ± 4.44 | 6.3 ± 2.47 | quenching effect on apo-Tf fluorescence peak (Apo-transferrin (apo-Tf); 1 µM apo-Tf, compound up to 8 µM, λex 295 nm): 35%; Ksv (Stern-Volmer constant), apo-Tf (Apo-transferrin (apo-Tf); 1 µM apo-Tf, listed as Y-oxo): (6.52 ± 0.56) × 10^4 M^−1; Ka (association binding constant), apo-Tf (Apo-transferrin (apo-Tf); listed as Y-oxo): (4.40 ± 1.09) × 10^4 M^−1; Ksv (Stern-Volmer quenching constant, EB-DNA system) (EB-DNA system (CT-DNA); listed as Y-oxo): (8.38 ± 0.29) × 10^3 |
| CCn1cc(C(=O)O)c(=O)c2cc3c(cc21)OCO3 [oxo, 5-ethyl-5,8-dihydro-8-oxo-l,3 dioxolo[4,5-g]quinoline-7-carboxylic acid, reference compound] | 43.5 ± 4.94 |  |  |  | 1.89 ± 1.35 | 0.67 ± 0.00 | (17.45 ± 0.95) × 10^4 M^−1 | 1.745e+13 | 0.36±0.01 |  |  |  | 1.62 ± 0.39 | 0.90 ± 0.01 | (1.95 ± 0.38) × 10^4 M^−1 | 1.95e+12 | 1.92 ± 0.35 | (1.05 ± 0.02) × 10^4 | 42.07 ± 18.48 |  | Kd (Apo-transferrin (apo-Tf); Kd, apo-Tf): 8.11 ± 7.34 µM; IC50 ([2]; Homo sapiens, HUVEC): > 200 µM; Ksv (Stern-Volmer constant), HSA ([4]; 2.5 µM HSA, listed as oxolinic acid): 1.95 (± 0.38) × 10^4 M^−1; Kd ([4]; Ka (association binding constant)): 92.6 µM; Kd ([4]; Kd): 7.26 ± 2.66 µM; IC50 ([3]; Homo sapiens, LoVo): > 200 µM |
| [Gd(oxo)(OH)(H2O)]·0.5H2O [Gd oxo] |  | > 200 | 56.5 ± 3.83 | (0.58 ± 0.25) × 10^4 M^−1 | 1.24 ± 0.45 | 0.76 ± 0.03 | (17.51 ± 1.06) × 10^4 M^−1 | 1.751e+13 | 0.73 ± 0.02 | 8.8 ± 6.57 | 73.8 ± 18.5 | (1.98 ± 0.82) × 10^5 M^−1 | 1.81 ± 0.26 | 1.06 ± 0.03 | (5.77 ± 0.84) × 10^4 M^−1 | 5.77e+12 | 1.39 ± 0.15 | (1.18 ± 0.01) × 10^4 | 47.75 ± 25.22 | 5.32 ± 0.69 | quenching effect on HSA fluorescence peak ([4]; 2.5 µM HSA, compound up to 8 µM, λex 280 nm): ~ 47% |

Source: article PMC7699381, “Rare-Earth Metal Complexes of the Antibacterial Drug Oxolinic Acid: Synthesis, Characterization, DNA/Protein Binding and Cytotoxicity Studies” (Molecules, 2020)
